Molecules are shown by their SMILES.

One assay concerns NCI-H1993. The experiment in a line: relative viability (nuclei count vs DMSO), 5 days (fraction); higher = more cells survive. As to conditions: first compound 0.2 µM. In outline: (§1)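 Nuclei were stained with Hoechst during a one-step fixation (final 0.05% Triton X-100, 1% formaldehyde, 1 ug/ml Hoechst) carried out 5 days after dosing, then counted on 4× images. The cells, lung cancer lines in 1536-well plates, had been dosed by pin tool the day after seeding with one drug alone or a fixed anchor-drug dose plus five library-drug doses (not always all listed) in √10 steps. Relative viability is the nuclei count in treated wells divided by that in vehicle wells, and each value is the median of duplicate plates.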
In the case of `COCC1(CO)C(=O)C2CCN1CC2` (stereo unspecified) [PRIMA-1MET] + CS(=O)(=O)N1CCN(Cc2cc3nc(-c4cccc5[nH]ncc45)nc(N4CCOCC4)c3s2)CC1 [Pictilisib] (partner 1 µM), the relative viability came to 0.949.
`COCC1(CO)C(=O)C2CCN1CC2` (stereo unspecified) [PRIMA-1MET] + CS(=O)(=O)CCNCc1ccc(-c2ccc3ncnc(Nc4ccc(OCc5cccc(F)c5)c(Cl)c4)c3c2)o1 [Lapatinib] (partner 2 µM) had a relative viability of 0.776.
In turn, `COCC1(CO)C(=O)C2CCN1CC2` (stereo unspecified) [PRIMA-1MET] + C[C@]1(O)C[C@@H](c2nc(-c3ccc4ccc(-c5ccccc5)nc4c3)c3c(N)nccn32)C1 [Linsitinib] (partner 1 µM) gave a relative viability of 0.708.
In turn, `COCC1(CO)C(=O)C2CCN1CC2` (stereo unspecified) [PRIMA-1MET] + COc1cc2c(Oc3ccc(NC(=O)C4(C(=O)Nc5ccc(F)cc5)CC4)cc3F)ccnc2cc1OCCCN1CCOCC1 [Foretinib] (partner 0.25 µM) yielded a relative viability of 0.875.
In the case of `COCC1(CO)C(=O)C2CCN1CC2` (stereo unspecified) [PRIMA-1MET] + Cc1nc(NC(=O)N2CCC[C@H]2C(N)=O)sc1-c1ccnc(C(C)(C)C(F)(F)F)c1 [Alpelisib] (partner 2 µM), the relative viability is 0.724.

Staying with this assay, now noted: first compound 0.6325 µM.
With `COCC1(CO)C(=O)C2CCN1CC2` (stereo unspecified) [PRIMA-1MET] + CS(=O)(=O)N1CCN(Cc2cc3nc(-c4cccc5[nH]ncc45)nc(N4CCOCC4)c3s2)CC1 [Pictilisib] (partner 1 µM), the relative viability was found to be 0.797.
The molecule `COCC1(CO)C(=O)C2CCN1CC2` (stereo unspecified) [PRIMA-1MET] + CS(=O)(=O)CCNCc1ccc(-c2ccc3ncnc(Nc4ccc(OCc5cccc(F)c5)c(Cl)c4)c3c2)o1 [Lapatinib] (partner 2 µM) gave a relative viability of 0.776.
With `COCC1(CO)C(=O)C2CCN1CC2` (stereo unspecified) [PRIMA-1MET] + C[C@]1(O)C[C@@H](c2nc(-c3ccc4ccc(-c5ccccc5)nc4c3)c3c(N)nccn32)C1 [Linsitinib] (partner 1 µM), the relative viability turned out to be 0.794.
On to `COCC1(CO)C(=O)C2CCN1CC2` (stereo unspecified) [PRIMA-1MET] + COc1cc2c(Oc3ccc(NC(=O)C4(C(=O)Nc5ccc(F)cc5)CC4)cc3F)ccnc2cc1OCCCN1CCOCC1 [Foretinib] (partner 0.25 µM), for which the relative viability came out at 0.767.
`COCC1(CO)C(=O)C2CCN1CC2` (stereo unspecified) [PRIMA-1MET] + Cc1nc(NC(=O)N2CCC[C@H]2C(N)=O)sc1-c1ccnc(C(C)(C)C(F)(F)F)c1 [Alpelisib] (partner 2 µM) yielded a relative viability of 0.706.

Still in this assay, the particulars now being: first compound 2 µM.
For `COCC1(CO)C(=O)C2CCN1CC2` (stereo unspecified) [PRIMA-1MET] + CS(=O)(=O)N1CCN(Cc2cc3nc(-c4cccc5[nH]ncc45)nc(N4CCOCC4)c3s2)CC1 [Pictilisib] (partner 1 µM), the relative viability is 0.732.
The molecule `COCC1(CO)C(=O)C2CCN1CC2` (stereo unspecified) [PRIMA-1MET] + CS(=O)(=O)CCNCc1ccc(-c2ccc3ncnc(Nc4ccc(OCc5cccc(F)c5)c(Cl)c4)c3c2)o1 [Lapatinib] (partner 2 µM) yielded a relative viability of 0.731.
Molecule `COCC1(CO)C(=O)C2CCN1CC2` (stereo unspecified) [PRIMA-1MET] + C[C@]1(O)C[C@@H](c2nc(-c3ccc4ccc(-c5ccccc5)nc4c3)c3c(N)nccn32)C1 [Linsitinib] (partner 1 µM) came in with a relative viability of 0.656.
Turning to `COCC1(CO)C(=O)C2CCN1CC2` (stereo unspecified) [PRIMA-1MET] + COc1cc2c(Oc3ccc(NC(=O)C4(C(=O)Nc5ccc(F)cc5)CC4)cc3F)ccnc2cc1OCCCN1CCOCC1 [Foretinib] (partner 0.25 µM), the relative viability was found to be 0.657.
Same read-out and setting: the result for `COCC1(CO)C(=O)C2CCN1CC2` (stereo unspecified) [PRIMA-1MET] + Cc1nc(NC(=O)N2CCC[C@H]2C(N)=O)sc1-c1ccnc(C(C)(C)C(F)(F)F)c1 [Alpelisib] (partner 2 µM) reads 0.628.

Staying with this assay, now noted: first compound 6.325 µM.
`COCC1(CO)C(=O)C2CCN1CC2` (stereo unspecified) [PRIMA-1MET] + CS(=O)(=O)N1CCN(Cc2cc3nc(-c4cccc5[nH]ncc45)nc(N4CCOCC4)c3s2)CC1 [Pictilisib] (partner 1 µM) gave a relative viability of 0.873.
`COCC1(CO)C(=O)C2CCN1CC2` (stereo unspecified) [PRIMA-1MET] + CS(=O)(=O)CCNCc1ccc(-c2ccc3ncnc(Nc4ccc(OCc5cccc(F)c5)c(Cl)c4)c3c2)o1 [Lapatinib] (partner 2 µM): the relative viability was found to be 0.771.
`COCC1(CO)C(=O)C2CCN1CC2` (stereo unspecified) [PRIMA-1MET] + C[C@]1(O)C[C@@H](c2nc(-c3ccc4ccc(-c5ccccc5)nc4c3)c3c(N)nccn32)C1 [Linsitinib] (partner 1 µM) had a relative viability of 0.725.
`COCC1(CO)C(=O)C2CCN1CC2` (stereo unspecified) [PRIMA-1MET] + COc1cc2c(Oc3ccc(NC(=O)C4(C(=O)Nc5ccc(F)cc5)CC4)cc3F)ccnc2cc1OCCCN1CCOCC1 [Foretinib] (partner 0.25 µM): the relative viability is 0.803.
Regarding `COCC1(CO)C(=O)C2CCN1CC2` (stereo unspecified) [PRIMA-1MET] + Cc1nc(NC(=O)N2CCC[C@H]2C(N)=O)sc1-c1ccnc(C(C)(C)C(F)(F)F)c1 [Alpelisib] (partner 2 µM), the relative viability worked out at 0.768.

Still in this assay, the particulars now being: first compound 20 µM.
Take `COCC1(CO)C(=O)C2CCN1CC2` (stereo unspecified) [PRIMA-1MET] + CS(=O)(=O)N1CCN(Cc2cc3nc(-c4cccc5[nH]ncc45)nc(N4CCOCC4)c3s2)CC1 [Pictilisib] (partner 1 µM): the relative viability was 0.854.
As for `COCC1(CO)C(=O)C2CCN1CC2` (stereo unspecified) [PRIMA-1MET] + CS(=O)(=O)CCNCc1ccc(-c2ccc3ncnc(Nc4ccc(OCc5cccc(F)c5)c(Cl)c4)c3c2)o1 [Lapatinib] (partner 2 µM), the relative viability was found to be 0.759.
On to `COCC1(CO)C(=O)C2CCN1CC2` (stereo unspecified) [PRIMA-1MET] + C[C@]1(O)C[C@@H](c2nc(-c3ccc4ccc(-c5ccccc5)nc4c3)c3c(N)nccn32)C1 [Linsitinib] (partner 1 µM), for which the relative viability amounted to 0.757.
Turning to `COCC1(CO)C(=O)C2CCN1CC2` (stereo unspecified) [PRIMA-1MET] + COc1cc2c(Oc3ccc(NC(=O)C4(C(=O)Nc5ccc(F)cc5)CC4)cc3F)ccnc2cc1OCCCN1CCOCC1 [Foretinib] (partner 0.25 µM), the relative viability came to 0.754.
As for `COCC1(CO)C(=O)C2CCN1CC2` (stereo unspecified) [PRIMA-1MET] + Cc1nc(NC(=O)N2CCC[C@H]2C(N)=O)sc1-c1ccnc(C(C)(C)C(F)(F)F)c1 [Alpelisib] (partner 2 µM), the relative viability was determined as 0.664.

The next assay concerns NCI-H2009. Described as above. The conditions noted are these: first compound 0.2 µM. An outline of the steps:
as §1
With `COCC1(CO)C(=O)C2CCN1CC2` (stereo unspecified) [PRIMA-1MET] + CS(=O)(=O)N1CCN(Cc2cc3nc(-c4cccc5[nH]ncc45)nc(N4CCOCC4)c3s2)CC1 [Pictilisib] (partner 1 µM), the relative viability was found to be 0.337.
The molecule `COCC1(CO)C(=O)C2CCN1CC2` (stereo unspecified) [PRIMA-1MET] + CS(=O)(=O)CCNCc1ccc(-c2ccc3ncnc(Nc4ccc(OCc5cccc(F)c5)c(Cl)c4)c3c2)o1 [Lapatinib] (partner 2 µM) gave a relative viability of 0.66.
Still for that read-out and setting: the same measure for `COCC1(CO)C(=O)C2CCN1CC2` (stereo unspecified) [PRIMA-1MET] + C[C@]1(O)C[C@@H](c2nc(-c3ccc4ccc(-c5ccccc5)nc4c3)c3c(N)nccn32)C1 [Linsitinib] (partner 1 µM): 1.17; for `COCC1(CO)C(=O)C2CCN1CC2` (stereo unspecified) [PRIMA-1MET] + COc1cc2c(Oc3ccc(NC(=O)C4(C(=O)Nc5ccc(F)cc5)CC4)cc3F)ccnc2cc1OCCCN1CCOCC1 [Foretinib] (partner 0.25 µM): 1.33.
On to `COCC1(CO)C(=O)C2CCN1CC2` (stereo unspecified) [PRIMA-1MET] + Cc1nc(NC(=O)N2CCC[C@H]2C(N)=O)sc1-c1ccnc(C(C)(C)C(F)(F)F)c1 [Alpelisib] (partner 2 µM), for which the relative viability is 1.12.

Still in this assay, the particulars now being: first compound 0.6325 µM.
`COCC1(CO)C(=O)C2CCN1CC2` (stereo unspecified) [PRIMA-1MET] + CS(=O)(=O)N1CCN(Cc2cc3nc(-c4cccc5[nH]ncc45)nc(N4CCOCC4)c3s2)CC1 [Pictilisib] (partner 1 µM) yielded a relative viability of 0.68.

The values are drawn from the supplement of paper PMC10307832.
